Experimental data taken from article PMC7909074 (Journal of medicinal chemistry, 2021).
Like-named read-outs stand apart in the source and are kept apart here.

Tests used:
GRK5 [1] = molecular target: T1, GRK5 (Homo sapiens, UniProt P34947); assay: Intact protein MS, adduct formation with GRK5; conditions: for Adduct by MS: incubation time needed to observe adduct formation with GRK5: intact mass MS; for covalent adduct formation with GRK5 (in words): intact MS
GRK5 [2] = molecular target: T1, GRK5; assay: Kinome-wide selectivity panel, GRK5; conditions: read-out: inhibition of GRK5
GRK5 [3] = molecular target: T1, GRK5; assay: Covalent inhibition kinetic analysis
[4] = Thermodynamic solubility, miniaturized shake-flask; type: physicochemical
[5] = Microsomal stability, HLM; type: in vitro ADME; conditions: human, human liver microsomes
PKA = PKA (Homo sapiens, UniProt P17612); assay: PKA inhibition assay, ADP-Glo
bovine GRK2 = molecular target: T2, bovine GRK2 (Bos taurus, UniProt P21146); assay: Radiometric GRK2 inhibition assay; type: biochemical
T2 sequence (P21146 1-689): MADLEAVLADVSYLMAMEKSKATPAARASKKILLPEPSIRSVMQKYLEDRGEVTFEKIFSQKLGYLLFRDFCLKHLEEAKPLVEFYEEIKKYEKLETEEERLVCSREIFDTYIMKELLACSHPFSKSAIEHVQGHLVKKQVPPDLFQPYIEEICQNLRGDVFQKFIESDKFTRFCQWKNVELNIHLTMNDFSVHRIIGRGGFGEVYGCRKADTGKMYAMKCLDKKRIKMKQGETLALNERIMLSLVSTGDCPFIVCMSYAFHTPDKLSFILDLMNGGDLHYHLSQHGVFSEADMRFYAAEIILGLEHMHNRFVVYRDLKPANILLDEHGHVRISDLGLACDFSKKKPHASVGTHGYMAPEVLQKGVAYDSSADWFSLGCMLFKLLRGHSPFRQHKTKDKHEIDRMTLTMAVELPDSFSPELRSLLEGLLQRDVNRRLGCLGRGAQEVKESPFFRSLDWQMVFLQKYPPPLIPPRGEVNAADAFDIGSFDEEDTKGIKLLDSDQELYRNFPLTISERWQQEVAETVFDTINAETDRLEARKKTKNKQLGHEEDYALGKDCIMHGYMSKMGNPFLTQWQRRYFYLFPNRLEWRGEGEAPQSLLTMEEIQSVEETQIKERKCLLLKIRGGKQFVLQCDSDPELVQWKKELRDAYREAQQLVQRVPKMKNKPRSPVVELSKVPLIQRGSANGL

[6] = cited from earlier work
[7] = tested on: rodent model of hypertrophy; conditions: cited from earlier work

T1 sequence (P34947 whole entry): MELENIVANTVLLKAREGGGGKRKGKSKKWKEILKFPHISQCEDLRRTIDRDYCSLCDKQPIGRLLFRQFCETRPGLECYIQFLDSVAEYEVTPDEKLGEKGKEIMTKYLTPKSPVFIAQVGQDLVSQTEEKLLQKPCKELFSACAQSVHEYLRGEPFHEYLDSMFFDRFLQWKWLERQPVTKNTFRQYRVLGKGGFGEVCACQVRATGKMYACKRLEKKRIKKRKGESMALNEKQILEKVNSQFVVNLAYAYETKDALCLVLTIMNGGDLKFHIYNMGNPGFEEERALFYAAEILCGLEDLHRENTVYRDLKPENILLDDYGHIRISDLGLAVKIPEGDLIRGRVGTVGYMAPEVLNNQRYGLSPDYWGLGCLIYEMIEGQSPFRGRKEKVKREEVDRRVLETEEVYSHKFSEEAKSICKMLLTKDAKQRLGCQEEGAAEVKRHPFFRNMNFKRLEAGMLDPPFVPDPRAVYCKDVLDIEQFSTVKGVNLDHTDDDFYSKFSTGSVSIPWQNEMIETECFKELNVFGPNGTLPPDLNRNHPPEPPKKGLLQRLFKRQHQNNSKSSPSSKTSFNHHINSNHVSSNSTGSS

C=CCCNC(=O)c1c(C)[nH]c(/C=C2\C(=O)Nc3ccc(C(=O)N[C@H](C)c4ccccc4)cc32)c1C (mixture of isomers) [Compound 5f, (R,Z)-3-((4-(but-3-en-1-ylcarbamoyl)-3,5-dimethyl-1H-pyrrol-2-yl)methylene)-2-oxo-N-(1-phenylethyl)indoline-5-carboxamide]
Adduct by MS: incubation time needed to observe adduct formation with GRK5 (GRK5 [1]; Table 1): >30 min

CC#CC(=O)Nc1c(C)[nH]c(/C=C2\C(=O)Nc3ccc(C(=O)N[C@H](C)c4ccccc4)cc32)c1C (mixture of isomers) [Compound 9a, (R,Z)-3-((4-(but-2-ynamido)-3,5-dimethyl-1H-pyrrol-2-yl)methylene)-2-oxo-N-(1-phenylethyl)indoline-5-carboxamide]
Adduct by MS: incubation time needed to observe adduct formation with GRK5 (GRK5 [1]; Table 1): >180 min
covalent adduct formation with GRK5 (in words) (GRK5 [1]; 30 min incubation): unreactive

Cc1[nH]c(/C=C2\C(=O)Nc3ccc(C(=O)N[C@H](C)c4ccccc4)cc32)c(C)c1NC(=O)CBr (mixture of isomers) [Compound 9g, (R,Z)-3-((4-(2-bromoacetamido)-3,5-dimethyl-1H-pyrrol-2-yl)methylene)-2-oxo-N-(1-phenylethyl)indoline-5-carboxamide]
inhibition at 0.01 µM (GRK5 [2]): 50%
Adduct by MS: percent adduct (GRK5 [1]; Table 1, 30 min incubation): 70% 30 min
covalent adduct formation with GRK5 (in words) (GRK5 [1]; 30 min incubation): rapidly reacted with GRK5
kinact (GRK5 [3]): > 0.0167 s⁻¹

Cc1[nH]c(/C=C2\C(=O)Nc3ccc(C(=O)N[C@H](C)c4ccccn4)cc32)c(C)c1NC(=O)CCl (mixture of isomers) [Compound 9l, (R,Z)-3-((4-(2-chloroacetamido)-3,5-dimethyl-1H-pyrrol-2-yl)methylene)-2-oxo-N-(1-(pyridin-2-yl)ethyl)indoline-5-carboxamide]
solubility improvement over 9e [4]: 3.5 fold

Cc1[nH]c(/C=C2\C(=O)Nc3ccc(C(=O)N[C@H](C)c4ccc(F)cc4)cc32)c(C)c1NC(=O)CCl (stereo in doubt) [Compound 9j, (R,Z)-3-((4-(2-chloroacetamido)-3,5-dimethyl-1H-pyrrol-2-yl)methylene)-N-(1-(4-fluorophenyl)ethyl)-2-oxoindoline-5carboxamide]
half-life [5]: 18.9 min

Cc1[nH]c(/C=C2\C(=O)Nc3ccc(C(=O)N[C@@H](c4ccccc4)C(C)C)cc32)c(C)c1NC(=O)CCl (stereo in doubt) [Compound 9s, (R,Z)-3-((4-(2-chloroacetamido)-3,5-dimethyl-1H-pyrrol-2-yl)methylene)-N-(2-methyl-1-phenylpropyl)-2-oxoindoline-5-carboxamide]
IC50 (PKA): > 250 µM
IC50 (bovine GRK2): 23 ± 20 µM

Cc1[nH]c(/C=C2\C(=O)Nc3ccc(C(=O)NC(C)(C)c4ccccc4)cc32)c(C)c1NC(=O)CCl [Compound 9r, (Z)-3-((4-(2-chloroacetamido)-3,5-dimethyl-1H-pyrrol-2-yl)methylene)-2-oxo-N-(2-phenylpropan-2-yl)indoline-5-carboxamide]
IC50 (bovine GRK2): 190 ± 70 µM

NCCCNCCCCNCCCNc1cc2nc(-c3ccccc3Cl)[nH]c(=O)c2cc1F [KR-39038]
bioavailability (in words) [6]: low bioavailability
half-life [6]: < 60 min
effect in a rodent model of hypertrophy (in words) [7]: mild positive effects
